Legend:
GR = target: T1, GR (Homo sapiens, UniProt P04150); assay: In Vitro GR Luciferase Reporter Assay (antagonist mode, CHO-K1-GR-MMTV-Luc reporter cells); format: cell-based
T1 construct: expressed in transfected cells; host or cells: CHO-K1
T1 sequence (P04150 1-777): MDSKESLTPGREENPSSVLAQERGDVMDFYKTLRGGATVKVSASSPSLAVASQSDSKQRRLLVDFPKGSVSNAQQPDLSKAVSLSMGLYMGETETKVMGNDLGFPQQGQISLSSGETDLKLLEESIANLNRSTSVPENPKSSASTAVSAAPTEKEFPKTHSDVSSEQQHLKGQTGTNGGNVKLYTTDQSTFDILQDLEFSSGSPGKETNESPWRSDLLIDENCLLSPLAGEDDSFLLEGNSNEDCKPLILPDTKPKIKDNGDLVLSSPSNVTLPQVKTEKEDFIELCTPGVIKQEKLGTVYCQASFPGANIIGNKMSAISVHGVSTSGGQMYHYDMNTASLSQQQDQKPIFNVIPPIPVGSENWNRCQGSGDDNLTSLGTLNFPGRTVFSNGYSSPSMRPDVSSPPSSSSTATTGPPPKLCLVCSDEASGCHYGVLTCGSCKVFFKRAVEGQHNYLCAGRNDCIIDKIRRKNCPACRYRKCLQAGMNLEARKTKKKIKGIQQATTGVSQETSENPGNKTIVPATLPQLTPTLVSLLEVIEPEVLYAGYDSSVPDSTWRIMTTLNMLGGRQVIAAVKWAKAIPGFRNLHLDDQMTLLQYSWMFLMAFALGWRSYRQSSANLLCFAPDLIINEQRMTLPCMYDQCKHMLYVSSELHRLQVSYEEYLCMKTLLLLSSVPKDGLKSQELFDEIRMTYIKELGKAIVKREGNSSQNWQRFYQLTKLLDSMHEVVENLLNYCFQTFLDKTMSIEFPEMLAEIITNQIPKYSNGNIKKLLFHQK
In short: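 Antagonist mode: compounds (8 serial 1:5 dilutions) added to GR-MMTV-luciferase CHO-K1 reporter cells co-exposed to 10 nM dexamethasone final, in phenol red-free DMEM plus 10% CSS. After roughly 18-24 h at 37° C, OneGlo luminescence read and IC50 calculated.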

CYP2C8 = target: T2, CYP2C8 (Homo sapiens, UniProt P10632); assay: CYP Inhibition Assay (CYP2C8, human liver microsomes, paclitaxel substrate); format: in vitro ADME; conditions: pH 7.4; pooled human liver microsomes 0.1 mg/mL, probe substrate paclitaxel
T2 construct: Pooled human microsomes were obtained from Sekisui XenoTech, KS; tissue Sekisui XenoTech, KS; host or cells: pooled human liver microsomes
T2 sequence (P10632 1-490): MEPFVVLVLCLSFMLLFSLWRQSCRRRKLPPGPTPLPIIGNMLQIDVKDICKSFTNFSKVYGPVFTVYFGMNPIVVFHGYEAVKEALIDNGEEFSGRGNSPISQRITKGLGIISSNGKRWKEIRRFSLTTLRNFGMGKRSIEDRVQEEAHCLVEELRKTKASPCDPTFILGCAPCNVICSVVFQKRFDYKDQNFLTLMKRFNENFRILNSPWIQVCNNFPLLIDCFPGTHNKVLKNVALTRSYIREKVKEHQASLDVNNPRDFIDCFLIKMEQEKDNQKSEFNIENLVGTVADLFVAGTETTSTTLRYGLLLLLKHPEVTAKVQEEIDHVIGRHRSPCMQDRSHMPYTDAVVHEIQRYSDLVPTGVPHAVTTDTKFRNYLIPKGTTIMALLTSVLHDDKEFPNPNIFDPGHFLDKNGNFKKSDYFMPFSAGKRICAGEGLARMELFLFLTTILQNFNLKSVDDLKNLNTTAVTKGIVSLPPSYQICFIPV
In short: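 CYP2C8 activity read as 6α-hydroxypaclitaxel formation by LC-MS/MS, with % inhibition versus vehicle control. Reactions ran 5 min at 37° C, pH 7.4 phosphate buffer, 0.1 mg/mL pooled human liver microsomes, 1 mM NADPH, duplicate wells.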

[1] = antagonist mode, 10 nM Dexamethasone
[2] = antagonist assay with 10 nM Dexamethasone, 18-24 hours

Compound	IC50 (GR; [1]) [nM]	inhibition at 5 min (CYP2C8) [%]	IC50 (GR; [2]) [nM]
Cn1ccc(S(=O)(=O)N(C2CC2)[C@H]2CCC3=Cc4c(cnn4-c4ccc(F)cc4)C[C@]3(C(=O)c3ncc(Cl)cn3)C2)n1 [Example 259, N-((4aS,6S)-4a-(5-chloropyrimidine-2-carbonyl)-1-(4-fluorophenyl)-4,4a,5,6,7,8-hexahydro-1H-benzo[f]indazol-6-yl)-N-cyclopropyl-1-methyl-1H-pyrazole-3-sulfonamide]	≤ 100	25 to 50	
Cn1cc(S(=O)(=O)N(CC(F)F)[C@H]2CCC3=Cc4c(cnn4-c4ccc(F)cc4)C[C@]3(C(=O)c3cc(F)ccn3)C2)nn1 [Example 373, N-(2,2-difluoroethyl)-N-((4aS,6S)-1-(4-fluorophenyl)-4a-(4-fluoropicolinoyl)-4,4a,5,6,7,8-hexahydro-1H-benzo[f]indazol-6-yl)-1-methyl-1H-1,2,3-triazole-4-sulfonamide]	≤ 100	50 to 75	
CO[C@]1(C)C[C@H](N([C@H]2CCC3=Cc4c(cnn4-c4ccc(F)cc4)C[C@]3(C(=O)c3ncc(C(F)(F)F)s3)C2)S(=O)(=O)c2ccn(C)n2)C1 [Example 342, N-((4aS,6S)-1-(4-fluorophenyl)-4a-(5-(trifluoromethyl)thiazole-2-carbonyl)-4,4a,5,6,7,8-hexahydro-1H-benzo[f]indazol-6-yl)-N-((1s,3R)-3-methoxy-3-methylcyclobutyl)-1-methyl-1H-pyrazole-3-sulfonamide]	≤ 100	25 to 50	
Cn1ncc(S(=O)(=O)N(CC(F)(F)F)[C@H]2CCC3=Cc4c(cnn4-c4ccc(F)cc4)C[C@]3(C(=O)c3ncc(C(F)(F)F)s3)C2)n1 [Example 300, N-((4aS,6S)-1-(4-fluorophenyl)-4a-(5-(trifluoromethyl)thiazole-2-carbonyl)-4,4a,5,6,7,8-hexahydro-1H-benzo[f]indazol-6-yl)-2-methyl-N-(2,2,2-trifluoroethyl)-2H-1,2,3-triazole-4-sulfonamide]	≤ 100	50 to 75	
CCN([C@H]1CCC2=Cc3c(cnn3-c3ccc(F)cc3)C[C@]2(C(=O)c2ncc(C(F)(F)F)s2)C1)S(=O)(=O)c1cnn(C)c1 [Example 153, N-ethyl-N-((4aS,6S)-1-(4-fluorophenyl)-4a-(5-(trifluoromethyl)thiazole-2-carbonyl)-4,4a,5,6,7,8-hexahydro-1H-benzo[f]indazol-6-yl)-1-methyl-1H-pyrazole-4-sulfonamide]	≤ 100	50 to 75	
Cn1ccc(S(=O)(=O)N(CC(F)F)[C@H]2CCC3=Cc4c(cnn4-c4ccc(F)cc4)C[C@]3(C(=O)c3ncc(C(F)(F)F)s3)C2)n1 [Example 337, N-(2,2-difluoroethyl)-N-((4aS,6S)-1-(4-fluorophenyl)-4a-(5-(trifluoromethyl)thiazole-2-carbonyl)-4,4a,5,6,7,8-hexahydro-1H-benzo[f]indazol-6-yl)-1-methyl-1H-pyrazole-3-sulfonamide]	≤ 100	50 to 75	
CC(C)N([C@H]1CCC2=Cc3c(cnn3-c3ccc(F)cc3)C[C@]2(C(=O)c2ncc(C(F)(F)F)s2)C1)S(=O)(=O)c1ccc(Cl)nc1 [Example 283, 6-chloro-N-((4aS,6S)-1-(4-fluorophenyl)-4a-(5-(trifluoromethyl)thiazole-2-carbonyl)-4,4a,5,6,7,8-hexahydro-1H-benzo[f]indazol-6-yl)-N-isopropylpyridine-3-sulfonamide]	≤ 100	≤ 25	
Cn1cnc(S(=O)(=O)N(C2CC2)[C@H]2CCC3=Cc4c(cnn4-c4ccc(F)cc4)C[C@]3(C(=O)c3cc(Cl)ccn3)C2)n1 [Example 348, N-((4aS,6S)-4a-(4-chloropicolinoyl)-1-(4-fluorophenyl)-4,4a,5,6,7,8-hexahydro-1H-benzo[f]indazol-6-yl)-N-cyclopropyl-1-methyl-1H-1,2,4-triazole-3-sulfonamide]	≤ 100	25 to 50	
Cn1ccc(S(=O)(=O)N([C@H]2CCC3=Cc4c(cnn4-c4ccc(F)cc4)C[C@]3(C(=O)c3ncc(C(F)(F)F)s3)C2)[C@H]2C[C@](O)(C(F)(F)F)C2)n1 [Example 366, N-((4aS,6S)-1-(4-fluorophenyl)-4a-(5-(trifluoromethyl)thiazole-2-carbonyl)-4,4a,5,6,7,8-hexahydro-1H-benzo[f]indazol-6-yl)-N-((1s,3R)-3-hydroxy-3-(trifluoromethyl)cyclobutyl)-1-methyl-1H-pyrazole-3-sulfonamide]	≤ 100	≤ 25	

More lines, now with the values ahead:

IC50 (GR; [1]) [nM]	inhibition at 5 min (CYP2C8) [%]	IC50 (GR; [2]) [nM]	Compound
≤ 100	50 to 75		Cn1cnc(S(=O)(=O)N(C2CCC2)[C@H]2CCC3=Cc4c(cnn4-c4ccc(F)cc4)C[C@]3(C(=O)c3cc(C(F)(F)F)ccn3)C2)c1 [Example 226, N-cyclobutyl-N-((4aS,6S)-1-(4-fluorophenyl)-4a-(4-(trifluoromethyl)picolinoyl)-4,4a,5,6,7,8-hexahydro-1H-benzo[f]indazol-6-yl)-1-methyl-1H-imidazole-4-sulfonamide]
≤ 100	25 to 50		O=C(c1cc(C(F)(F)F)ccn1)[C@]12Cc3cnn(-c4ccc(F)cc4)c3C=C1CC[C@H](N(C1CC1)S(=O)(=O)c1ccc(Cl)cn1)C2 [Example 287, 5-chloro-N-cyclopropyl-N-((4aS,6S)-1-(4-fluorophenyl)-4a-(4-(trifluoromethyl)picolinoyl)-4,4a,5,6,7,8-hexahydro-1H-benzo[f]indazol-6-yl)pyridine-2-sulfonamide]
≤ 100	≤ 25		CN(C(=O)[C@H]1CCC2=Cc3c(cnn3-c3ccc(F)cc3)C[C@]2(C(=O)c2cc(C(F)(F)F)ccn2)C1)c1cnn(C)c1 (single isomer, unassigned) [Example 122]
	≤ 25	≤ 100	Cn1cc(S(=O)(=O)[C@H]2CCC3=Cc4c(cnn4-c4ccc(F)cc4)C[C@]3(C(=O)c3ccc(C(F)(F)F)cn3)C2)cn1 [Example 69, ((4aS,6S)-1-(4-fluorophenyl)-6-((1-methyl-1H-pyrazol-4-yl)sulfonyl)-1,4,5,6,7,8-hexahydro-4aH-benzo[f]indazol-4a-yl)(5-(trifluoromethyl)pyridin-2-yl)methanone]
	75 to 90	≤ 100	CC(C)n1ncc(S(=O)(=O)[C@H]2CCC3=Cc4c(cnn4-c4ccc(F)cc4)C[C@]3(C(=O)c3cc(C(F)(F)F)ccn3)C2)n1 [Example 56, ((4aS,6S)-1-(4-fluorophenyl)-6-((2-isopropyl-2H-1,2,3-triazol-4-yl)sulfonyl)-1,4,5,6,7,8-hexahydro-4aH-benzo[f]indazol-4a-yl)(4-(trifluoromethyl)pyridin-2-yl)methanone]
≤ 100	50 to 75		Cn1ccnc1S(=O)(=O)N(C1CC1)[C@H]1CCC2=Cc3c(cnn3-c3ccc(F)cc3)C[C@]2(C(=O)c2cc(C(F)(F)F)ccn2)C1 [Example 261, N-cyclopropyl-N-((4aS,6S)-1-(4-fluorophenyl)-4a-(4-(trifluoromethyl)picolinoyl)-4,4a,5,6,7,8-hexahydro-1H-benzo[f]indazol-6-yl)-1-methyl-1H-imidazole-2-sulfonamide]
≤ 100	50 to 75		Cn1cc(S(=O)(=O)N(C2CCC2)[C@H]2CCC3=Cc4c(cnn4-c4ccc(F)cc4)C[C@]3(C(=O)c3cc(C(F)(F)F)ccn3)C2)nn1 [Example 230, N-cyclobutyl-N-((4aS,6S)-1-(4-fluorophenyl)-4a-(4-(trifluoromethyl)picolinoyl)-4,4a,5,6,7,8-hexahydro-1H-benzo[f]indazol-6-yl)-1-methyl-1H-1,2,3-triazole-4-sulfonamide]

— patent US20210122730A1, “GLUCOCORTICOID RECEPTOR MODULATORS” (ORIC Pharmaceuticals, Inc., priority 2017, published 2021)
